Tests used:
[1] = Endotoxin content, limulus amoebocyte lysate (LAL) assay; settings: drug substance (Sample E6)
[2] = system: B/Phuket/3073/2013 virus strain; experiment: Splitting efficiency by ultracentrifugation in sucrose gradient; design: species or system influenza virus
[3] = system: B/Phuket/3073/2013 virus strain; experiment: HA content by SRID; design: species or system influenza virus
NA enzyme = experiment: NA enzymatic activity, MUNANA assay; type: biochemical, influenza virus; settings: drug substance (Sample E6)
[4] = system: B/Phuket/3073/2013 virus strain; design: species or system influenza virus

## Triton X-100
[1]
  Endotoxin content: < 0.5 EU/mL
[2]
  Splitting efficiency (ultracentrifugation in sucrose gradient): Conform* (Max total protein by OD280 at 40%sucrose for whole virus and lower than 30%sucrose for split virus.)
[3]
  HA content in µg/mL (SRID): 269.97 µg/mL
NA enzyme
  NA enzymatic activity: NA activity: 155 µmol/mL/h
[4]
  Residual infectious virus: No Residual infectious virus

## C11-15-secondary alcohol ethoxylates
[1]
  Endotoxin content: < 0.5 EU/mL
[3]
  HA content in µg/mL (SRID): 241.24 µg/mL
NA enzyme
  NA enzymatic activity: NA activity: 228 µmol/mL/h
  NA enzymatic activity: Specific activity: 1915 µmol/mg/h
[4]
  Residual infectious virus: No Residual infectious virus
